# Experimental data reported in ChEMBL document CHEMBL5291721, “A preclinical secondary pharmacology resource illuminates target-adverse drug reaction associations of marketed drugs” (Nat Commun, 2023).
# Experiments:
# [1] = molecular target: T1, Alpha-1A adrenergic receptor (Homo sapiens, UniProt P35348); format: functional, cell-based
# T1 sequence (P35348 whole entry): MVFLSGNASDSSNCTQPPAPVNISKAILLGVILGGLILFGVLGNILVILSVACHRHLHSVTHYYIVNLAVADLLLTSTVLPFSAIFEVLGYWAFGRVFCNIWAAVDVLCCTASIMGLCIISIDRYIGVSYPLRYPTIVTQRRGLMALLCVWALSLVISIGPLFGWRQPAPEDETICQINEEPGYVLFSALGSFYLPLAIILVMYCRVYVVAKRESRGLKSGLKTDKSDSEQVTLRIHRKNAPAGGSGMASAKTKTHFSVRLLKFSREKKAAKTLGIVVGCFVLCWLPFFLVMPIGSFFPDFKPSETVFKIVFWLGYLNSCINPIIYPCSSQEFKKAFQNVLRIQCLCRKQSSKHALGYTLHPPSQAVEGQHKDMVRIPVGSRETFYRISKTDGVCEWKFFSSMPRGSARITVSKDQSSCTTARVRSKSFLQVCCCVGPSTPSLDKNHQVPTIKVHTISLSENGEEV
# [2] = molecular target: Beta-2 adrenergic receptor (Homo sapiens, UniProt P07550)
# [3] = molecular target: T2, Estrogen receptor (Homo sapiens, UniProt P03372)
# T2 sequence (P03372 whole entry): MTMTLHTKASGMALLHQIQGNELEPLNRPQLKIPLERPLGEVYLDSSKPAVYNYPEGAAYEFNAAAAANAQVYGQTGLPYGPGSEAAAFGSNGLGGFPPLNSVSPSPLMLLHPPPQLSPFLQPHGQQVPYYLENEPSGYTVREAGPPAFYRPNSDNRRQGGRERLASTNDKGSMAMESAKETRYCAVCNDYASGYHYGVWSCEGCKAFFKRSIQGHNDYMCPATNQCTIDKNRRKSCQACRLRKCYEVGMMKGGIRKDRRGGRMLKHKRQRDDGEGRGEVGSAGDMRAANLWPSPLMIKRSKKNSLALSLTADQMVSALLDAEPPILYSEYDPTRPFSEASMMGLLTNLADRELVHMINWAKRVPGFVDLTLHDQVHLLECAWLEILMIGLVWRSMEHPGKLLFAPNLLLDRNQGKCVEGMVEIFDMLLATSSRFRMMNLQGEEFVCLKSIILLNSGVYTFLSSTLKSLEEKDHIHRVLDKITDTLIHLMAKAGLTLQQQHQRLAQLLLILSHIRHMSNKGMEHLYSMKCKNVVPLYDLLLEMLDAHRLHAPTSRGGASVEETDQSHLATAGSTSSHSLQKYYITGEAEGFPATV
# [4] = molecular target: Vasopressin V1a receptor (Homo sapiens, UniProt P37288)
# [5] = molecular target: T3, Progesterone receptor (Homo sapiens, UniProt P06401); format: functional
# T3 sequence (P06401 whole entry): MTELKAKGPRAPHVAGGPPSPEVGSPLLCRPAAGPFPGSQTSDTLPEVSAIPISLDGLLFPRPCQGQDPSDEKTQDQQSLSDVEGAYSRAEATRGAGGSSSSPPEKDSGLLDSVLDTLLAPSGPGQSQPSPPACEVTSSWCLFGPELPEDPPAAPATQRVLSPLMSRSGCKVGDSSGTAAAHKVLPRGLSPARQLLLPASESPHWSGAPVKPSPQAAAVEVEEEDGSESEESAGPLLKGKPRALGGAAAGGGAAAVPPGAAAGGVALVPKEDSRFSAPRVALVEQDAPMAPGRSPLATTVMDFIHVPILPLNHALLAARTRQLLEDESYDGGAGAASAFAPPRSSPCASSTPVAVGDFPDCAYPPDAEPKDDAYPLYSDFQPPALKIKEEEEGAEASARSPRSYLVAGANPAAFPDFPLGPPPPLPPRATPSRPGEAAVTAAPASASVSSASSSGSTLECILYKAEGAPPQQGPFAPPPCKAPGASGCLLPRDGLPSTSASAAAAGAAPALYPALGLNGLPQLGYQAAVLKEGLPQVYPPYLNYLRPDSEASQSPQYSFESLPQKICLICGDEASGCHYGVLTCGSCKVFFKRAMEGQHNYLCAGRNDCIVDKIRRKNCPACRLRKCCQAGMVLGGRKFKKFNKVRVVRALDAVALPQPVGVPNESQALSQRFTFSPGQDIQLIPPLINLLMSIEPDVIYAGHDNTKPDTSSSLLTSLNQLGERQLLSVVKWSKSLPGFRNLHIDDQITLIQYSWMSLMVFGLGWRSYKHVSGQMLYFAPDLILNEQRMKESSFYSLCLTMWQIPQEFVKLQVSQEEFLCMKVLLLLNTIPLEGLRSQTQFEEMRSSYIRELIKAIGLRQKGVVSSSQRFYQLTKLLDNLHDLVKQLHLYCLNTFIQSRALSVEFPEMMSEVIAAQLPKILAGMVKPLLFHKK
# [6] = molecular target: 5-hydroxytryptamine receptor 2B (Homo sapiens, UniProt P41595); format: functional, cell-based
# [7] = molecular target: T4, Glucocorticoid receptor (Homo sapiens, UniProt P04150)
# T4 sequence (P04150 whole entry): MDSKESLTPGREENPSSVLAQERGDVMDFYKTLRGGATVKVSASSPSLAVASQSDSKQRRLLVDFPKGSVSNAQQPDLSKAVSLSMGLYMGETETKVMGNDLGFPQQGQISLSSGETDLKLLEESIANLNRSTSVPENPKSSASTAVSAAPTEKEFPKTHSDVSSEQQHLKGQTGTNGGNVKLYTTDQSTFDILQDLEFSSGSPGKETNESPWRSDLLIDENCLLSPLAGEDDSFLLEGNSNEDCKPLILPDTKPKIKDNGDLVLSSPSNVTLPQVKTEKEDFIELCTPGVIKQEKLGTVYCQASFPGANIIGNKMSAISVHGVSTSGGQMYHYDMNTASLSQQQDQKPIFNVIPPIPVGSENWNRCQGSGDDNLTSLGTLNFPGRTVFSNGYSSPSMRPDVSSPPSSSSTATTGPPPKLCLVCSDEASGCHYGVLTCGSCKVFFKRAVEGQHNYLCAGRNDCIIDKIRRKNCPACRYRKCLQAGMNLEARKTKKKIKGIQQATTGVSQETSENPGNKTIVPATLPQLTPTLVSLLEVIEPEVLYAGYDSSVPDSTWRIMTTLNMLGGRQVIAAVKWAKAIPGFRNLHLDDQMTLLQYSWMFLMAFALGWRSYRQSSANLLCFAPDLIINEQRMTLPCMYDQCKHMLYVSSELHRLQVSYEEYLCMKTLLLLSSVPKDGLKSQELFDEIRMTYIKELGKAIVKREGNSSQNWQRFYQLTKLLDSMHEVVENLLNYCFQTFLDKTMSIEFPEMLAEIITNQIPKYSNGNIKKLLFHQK
# [8] = molecular target: Growth hormone secretagogue receptor type 1 (Homo sapiens, UniProt Q92847)
# [9] = molecular target: Muscarinic acetylcholine receptor M3 (Homo sapiens, UniProt P20309)
# Also: assay procedure not described here.
# Vasopressin V1a receptor, sequence (P37288 whole entry): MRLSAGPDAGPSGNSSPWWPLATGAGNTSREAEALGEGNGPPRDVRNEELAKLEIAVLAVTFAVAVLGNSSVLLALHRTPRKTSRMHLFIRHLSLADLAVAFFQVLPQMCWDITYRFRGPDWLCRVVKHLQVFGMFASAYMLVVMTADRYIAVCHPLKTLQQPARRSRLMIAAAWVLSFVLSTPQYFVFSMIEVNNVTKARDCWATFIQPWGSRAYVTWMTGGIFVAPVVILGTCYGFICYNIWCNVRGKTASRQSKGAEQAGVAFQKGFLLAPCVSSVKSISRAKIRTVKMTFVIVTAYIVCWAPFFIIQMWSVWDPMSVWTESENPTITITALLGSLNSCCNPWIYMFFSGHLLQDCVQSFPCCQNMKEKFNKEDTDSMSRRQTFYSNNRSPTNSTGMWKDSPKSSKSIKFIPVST
# Muscarinic acetylcholine receptor M3, sequence (P20309 whole entry): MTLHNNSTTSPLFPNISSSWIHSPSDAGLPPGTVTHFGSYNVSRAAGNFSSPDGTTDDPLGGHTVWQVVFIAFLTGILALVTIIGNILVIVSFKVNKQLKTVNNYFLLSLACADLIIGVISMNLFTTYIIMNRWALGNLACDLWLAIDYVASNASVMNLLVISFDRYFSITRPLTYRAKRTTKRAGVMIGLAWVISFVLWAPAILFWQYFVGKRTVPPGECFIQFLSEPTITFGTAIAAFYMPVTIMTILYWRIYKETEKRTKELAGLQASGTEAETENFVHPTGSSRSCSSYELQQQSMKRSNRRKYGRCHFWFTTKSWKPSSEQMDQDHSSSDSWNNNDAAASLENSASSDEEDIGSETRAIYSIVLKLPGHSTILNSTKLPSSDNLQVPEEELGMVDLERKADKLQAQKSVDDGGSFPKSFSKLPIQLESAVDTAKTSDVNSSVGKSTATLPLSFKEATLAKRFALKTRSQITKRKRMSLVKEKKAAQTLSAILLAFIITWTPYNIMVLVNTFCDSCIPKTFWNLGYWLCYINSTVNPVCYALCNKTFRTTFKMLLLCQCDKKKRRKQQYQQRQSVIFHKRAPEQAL
# Growth hormone secretagogue receptor type 1, sequence (Q92847 whole entry): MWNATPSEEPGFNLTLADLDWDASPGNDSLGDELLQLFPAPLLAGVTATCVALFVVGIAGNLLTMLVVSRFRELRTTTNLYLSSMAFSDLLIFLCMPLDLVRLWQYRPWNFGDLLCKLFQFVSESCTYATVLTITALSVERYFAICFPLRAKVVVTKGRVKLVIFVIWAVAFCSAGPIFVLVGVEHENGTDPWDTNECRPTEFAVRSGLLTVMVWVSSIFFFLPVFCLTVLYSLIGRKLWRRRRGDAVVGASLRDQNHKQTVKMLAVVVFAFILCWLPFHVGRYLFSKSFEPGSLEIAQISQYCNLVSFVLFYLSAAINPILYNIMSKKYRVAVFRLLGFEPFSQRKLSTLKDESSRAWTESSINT
# 5-hydroxytryptamine receptor 2B, sequence (P41595 whole entry): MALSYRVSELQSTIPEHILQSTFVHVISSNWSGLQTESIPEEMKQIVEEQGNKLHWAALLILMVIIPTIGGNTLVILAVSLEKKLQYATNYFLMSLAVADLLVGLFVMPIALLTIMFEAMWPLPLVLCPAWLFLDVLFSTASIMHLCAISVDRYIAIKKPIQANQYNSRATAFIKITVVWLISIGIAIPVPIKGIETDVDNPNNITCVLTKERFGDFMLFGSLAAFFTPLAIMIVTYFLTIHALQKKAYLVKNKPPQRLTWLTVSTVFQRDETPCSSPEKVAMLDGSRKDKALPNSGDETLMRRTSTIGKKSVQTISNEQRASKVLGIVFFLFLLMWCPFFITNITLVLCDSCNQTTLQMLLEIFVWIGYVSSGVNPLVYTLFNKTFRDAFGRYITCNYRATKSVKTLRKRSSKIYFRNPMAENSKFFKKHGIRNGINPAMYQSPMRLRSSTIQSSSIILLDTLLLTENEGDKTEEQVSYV
# Beta-2 adrenergic receptor, sequence (P07550 whole entry): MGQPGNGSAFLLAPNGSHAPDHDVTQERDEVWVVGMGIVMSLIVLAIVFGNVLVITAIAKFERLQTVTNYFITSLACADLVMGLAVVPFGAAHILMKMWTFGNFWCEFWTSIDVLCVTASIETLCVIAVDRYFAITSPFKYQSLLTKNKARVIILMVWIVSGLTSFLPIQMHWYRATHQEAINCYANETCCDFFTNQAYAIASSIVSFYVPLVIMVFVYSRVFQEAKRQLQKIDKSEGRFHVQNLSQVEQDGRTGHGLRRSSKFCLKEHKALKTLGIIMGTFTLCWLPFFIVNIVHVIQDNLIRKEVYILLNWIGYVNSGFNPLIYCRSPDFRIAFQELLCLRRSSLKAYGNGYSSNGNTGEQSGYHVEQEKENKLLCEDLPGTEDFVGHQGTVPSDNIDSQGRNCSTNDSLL
AC50 [1] [µM],AC50 [2] [µM],AC50 [3] [µM],AC50 [4] [µM],AC50 [5] [µM],AC50 [6] [µM],AC50 [7] [µM],AC50 [8] [µM],AC50 [9] [µM],SMILES
> 30,,> 30,> 30,> 30,> 30,> 30,> 30,> 30,CCOC(=O)Nc1ccc2c(c1)N(C(=O)CCN1CCOCC1)c1ccccc1S2 [MORICIZINE]
> 30,,> 30,,> 30,> 30,> 30,> 30,,CCn1cc(C(=O)O)c(=O)c2cc(F)c(N3CCN(C)CC3)cc21 [PEFLOXACIN]
> 30,,> 30,,3.9,> 30,> 30,> 30,,CCCNC(C)C(=O)Nc1ccccc1C (centres undefined) [PRILOCAINE]
> 30,> 30,> 30,> 30,> 30,> 30,> 30,> 30,,[H]/N=C(/N)N[C@H]1[C@H](O)[C@@H](O)[C@H](O[C@@H]2O[C@@H](C)[C@](O)(C=O)[C@H]2O[C@@H]2O[C@@H](CO)[C@H](O)[C@@H](O)[C@@H]2NC)[C@@H](N/C(N)=N\[H])[C@@H]1O [STREPTOMYCIN]
> 30,> 10,> 30,,> 30,> 10,> 30,> 10,,Cc1cccc(N(C)C(=S)Oc2ccc3ccccc3c2)c1 [TOLNAFTATE]
> 30,,> 30,> 30,> 10,> 30,> 30,26,24,COc1cc2c(Nc3ccc(Br)cc3F)ncnc2cc1OCC1CCN(C)CC1 [VANDETANIB]

# The next lines start with the molecule.
SMILES,AC50 [1] [µM],AC50 [2] [µM],AC50 [3] [µM],AC50 [4] [µM],AC50 [5] [µM],AC50 [6] [µM],AC50 [7] [µM],AC50 [8] [µM],AC50 [9] [µM]
Nc1ccn([C@@H]2O[C@H](CO)[C@@H](O)C2(F)F)c(=O)n1 [GEMCITABINE],> 30,> 30,> 30,> 30,> 30,> 10,> 30,> 30,
COC1=C(OC)C(=O)C(CCCCCCCCCCO)=C(C)C1=O [IDEBENONE],> 30,> 10,> 30,> 10,,> 10,> 30,> 30,
CCCC[C@H](C)C[C@H](O)/C=C/[C@H]1[C@H](O)CC(=O)[C@@H]1CCCC/C=C/C(=O)O [LIMAPROST],> 30,,> 30,> 30,> 30,> 30,> 30,> 30,> 30
Cc1ccc(NC(=O)C2(c3ccc4c(c3)OC(F)(F)O4)CC2)nc1-c1cccc(C(=O)O)c1 [LUMACAFTOR],> 30,,> 30,> 30,> 30,> 30,> 30,> 30,> 30
